The record followed here is US9974775B2, “Substituted imidazoles as N-type calcium channel blockers” (Janssen Pharmaceutica NV, priority 2013, dated 2018).

The experiment relates to mechanical allodynia after L5/L6 spinal nerve ligation. Description: Sciatic nerve ligation (SNL) model of neuropathic pain. It is filed as in vivo. The conditions noted are these: rats; dose 50 mg/kg; response at Tmax. The source says: Left L5 and L6 spinal nerves are isolated adjacent to the vertebral column and were ligated with 5-0 silk suture distal to the dorsal root ganglion, as described by Kim and Chung (1992). The incision was closed with the help of GLUture topical tissue adhesive. At 14 days post-surgery (one day prior to test compound administration), mechanical allodynia was quantified using eight von Frey filaments, calibrated in the range 0.4-15.1 g (Nielsen et al 2005). Rats were placed into individual plastic containers on top of a suspended wire mesh grid and acclimated to the test chambers for at least 15 min. Filaments were applied perpendicular to the mid-plantar paw surface, with enough force to cause slight buckling, and held in place for 6-8 sec until a response was noted as a sharp paw withdrawal, flinching, licking and/or biting immediately upon removal of the filament (Nielsen et al 2005). […] Test compounds of Formula (I) were administered and a response was measured at Tmax. The maximum possible effect (% MPE) was determined to be 100% if the sensitivity in the ipsilateral paw neared that of the contralateral paw. Values from vehicle-treated animals were considered 0%. The compound effect was determined based on these values.

With `COc1ccccc1-c1nc(C2CC(C)(C)OC(C)(C)C2)cn1-c1ccc(C#N)cc1` [Cpd 1, 4-(2-(2-methoxyphenyl)-4-(2,2,6,6-tetramethyltetrahydro-2H-pyran-4-yl)-1H-imidazol-1-yl)benzonitrile], the “SNL(% MPE)” value is 64.07 ± 12.31%.
